This is an account of results in patent publication US20240116985A1, “STAPLED PEPTIDES AND METHODS THEREOF” (priority 2020, published 2024).

The structures appear in SMILES notation. In brackets after ≈: the same amount, converted by molar mass. Several values for one entry are separate records, joined by “and”; a condition that tells them apart may be missing. Identical values can stand only once. Like-named read-outs stand apart in the source and are kept apart here.

Data set [1] has as its system TCF/LEF luciferase Reporter in DLD1 cells. Description: TCF reporter assay (DLD1 TCF/LEF luciferase reporter, Bright-Glo). The data set is classed as cell-based. To be noted: read-out: DLD1 4% Abs IC50; DLD1 4%. The essentials:
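DLD1 cells stably carrying a TCF/LEF luciferase reporter were plated at 5000 cells/well in RPMI + 4% FBS and treated overnight with a 1:2 compound dilution series. Bright-Glo luminescence read on day 3; viability by CellTiter-Glo. Absolute IC50 determined.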

In data set [2] the target is T1, full-length beta-Catenin (Uniprot ID P35222) (Homo sapiens, UniProt P35222).
T1 construct: 10 nM full-length beta-Catenin (Uniprot ID P35222)
T1 sequence (P35222 1-781): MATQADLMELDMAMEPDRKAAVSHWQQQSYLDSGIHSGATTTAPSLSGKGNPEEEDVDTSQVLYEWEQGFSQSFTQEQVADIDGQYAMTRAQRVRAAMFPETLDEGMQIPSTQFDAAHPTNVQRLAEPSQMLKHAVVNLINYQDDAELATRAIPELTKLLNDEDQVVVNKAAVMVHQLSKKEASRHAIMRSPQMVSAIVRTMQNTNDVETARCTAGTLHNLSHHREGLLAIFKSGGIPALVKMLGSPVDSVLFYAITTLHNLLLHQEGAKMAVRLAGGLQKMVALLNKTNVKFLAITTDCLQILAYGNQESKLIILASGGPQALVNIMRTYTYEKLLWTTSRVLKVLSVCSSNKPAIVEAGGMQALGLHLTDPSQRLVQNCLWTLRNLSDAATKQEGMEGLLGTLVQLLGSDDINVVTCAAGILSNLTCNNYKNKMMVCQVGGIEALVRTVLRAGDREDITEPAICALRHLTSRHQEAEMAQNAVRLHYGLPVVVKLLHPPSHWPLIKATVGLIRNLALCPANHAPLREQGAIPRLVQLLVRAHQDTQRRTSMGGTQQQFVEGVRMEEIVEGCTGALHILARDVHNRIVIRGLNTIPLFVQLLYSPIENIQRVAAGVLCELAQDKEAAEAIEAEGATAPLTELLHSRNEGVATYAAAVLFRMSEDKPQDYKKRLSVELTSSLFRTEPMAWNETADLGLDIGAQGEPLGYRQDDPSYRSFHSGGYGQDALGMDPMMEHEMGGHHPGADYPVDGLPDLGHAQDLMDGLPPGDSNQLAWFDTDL
Description: Fluorescence polarization IC50 (beta-catenin / 5FAM-TCF4 10-53 competition). The data set is classed as binding. Conditions: read-out: beta-Catenin FP IC50.

Data set [3] has as its target T2, beta-catenin/TCF4 engagement (Homo sapiens, UniProt P35222).
T2 construct: expressed in transfected cells; host or cells: HEK293
T2 sequence (P35222 1-781): T1 sequence (P35222 1-781)
Kind of data set: Nano-BRET target engagement assay (B-cat-Halo & TCF4-Luc in HEK293 cells). The format is cell-based. Conditions: for inhibition at 10 µM: HEK293, 10 uM. (Bioluminescence resonance energy transfer reports proximity on the nanometre scale.)

A short description of a further data set: CHI Log D procedure. The format is physicochemical. To be noted: pH 7.4, CHI Log D.
The next data set is described as follows: Solubility in PBS. To be noted: Solubility (uM). The data set is classed as physicochemical. The gist of the method:
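Solubility is derived from HPLC peak areas: the ratio of the PBS supernatant peak to a 50 μM DMSO peptide peak, times 50 uM.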

The mark [4] stands for this setting: plate row B = 20 uM, integration 0.3 s, reading 1.

Broadly, the IC50 is the concentration that inhibits the measured activity by half. One may read the chromatographic logD as a lipophilicity value derived from retention on a column. As usually defined, the Solubility is the concentration that dissolves in the medium under given conditions. As for `CC(=O)N1CCC[C@]12CC=CCCCC1(CCCC=CCCCOC(=O)N3CC[C@@](C(=O)N[C@@H](Cc4ccsc4)C(=O)N[C@@H](Cc4csc5ccccc45)C(=O)N[C@@H](CCC(N)=O)C(=O)N[C@H](C)C(N)=O)(C3)NC(=O)[C@H](CC(N)=O)NC(=O)[C@H](Cc3ccccc3)NC(=O)[C@H](C)NC(=O)[C@H](C)NC(=O)[C@H](CC(=O)O)NC(=O)[C@H](CC(=O)O)NC1=O)NC(=O)[C@H](CC(C)(C)C)NC(=O)[C@H](CC(=O)O)NC2=O` (stereo partly drawn) [I-822, Ac-PL3-Asp-Npg-B5-Asp-Asp-Ala-Ala-Phe-Asn-PyrS2-3Thi-BztA-Gln-dAla-NH2], the IC50 is 7.2 µM in data set [1], 0.006 µM in data set [2], 6.3 µM in data set [3] (read-out: NanoBRET Abs IC50) and 7.7 µM in data set [3] (read-out: NanoBRET IC50). The “BRET % Inhibition” value was −32.1% and −5.3% and 6.3% in data set [3] (0.625 uM, replicates); −6.1% and −18.2% and −25.1% in data set [3] (1.25 uM, replicates); −23.7% and 8.1% and −9.2% in data set [3] (2.5 uM, replicates); 6.8% and −15.3% and 30.1% in data set [3] (5 uM, replicates); 24.5% and 21.5% in data set [3] (10 uM, replicates); 52.9% and 40.7% and 71.4% in data set [3] (20 uM, replicates). In addition, the inhibition at 10 µM worked out at 53% in data set [3] (read-out: NanoBRET % inh @ 10 uM) and 35.7% in data set [3] (replicates, read-out: BRET % Inhibition). Besides, the “BRET Acceptor 600 LP raw reading” value in data set [3] (setting [4]) was 450 and 280; in data set [3] (plate row C = 10 uM), 490 and 470; in data set [3] (plate row D = 5 uM) it was 630 and 600 and 430; in data set [3] (plate row F = 1.25 uM (plate map)) it was 470 and 380 and 260. The “BRET Donor 450 BP raw reading” value was 59340 and 52650 and 45840 in data set [3] (setting [4]); 54740 and 47760 and 46640 in data set [3] (plate row C = 10 uM); 56000 and 46130 and 45780 in data set [3] (plate row D = 5 uM); 54130 and 32300 and 33550 in data set [3] (plate row E = 2.5 uM). Further, the chromatographic logD in the data set “CHI Log D procedure” was 2.03. Also, in “Solubility in PBS”, the Solubility was 46 µM (≈ 91.5 µg/mL).
